Measurements from patent US10160755B2 (Plexxikon Inc., priority 2015, dated 2018).
Each block holds one molecule with its values, some of them ahead of it.

What was measured:
FLT3-ITD = target: T1, FLT3-ITD (Homo sapiens, UniProt P36888); assay: FLT3-ITD biochemical kinase assay (AlphaScreen)
T1 construct: FLT3-ITD; Invitrogen #PV6190
T1 sequence (P36888 1-993): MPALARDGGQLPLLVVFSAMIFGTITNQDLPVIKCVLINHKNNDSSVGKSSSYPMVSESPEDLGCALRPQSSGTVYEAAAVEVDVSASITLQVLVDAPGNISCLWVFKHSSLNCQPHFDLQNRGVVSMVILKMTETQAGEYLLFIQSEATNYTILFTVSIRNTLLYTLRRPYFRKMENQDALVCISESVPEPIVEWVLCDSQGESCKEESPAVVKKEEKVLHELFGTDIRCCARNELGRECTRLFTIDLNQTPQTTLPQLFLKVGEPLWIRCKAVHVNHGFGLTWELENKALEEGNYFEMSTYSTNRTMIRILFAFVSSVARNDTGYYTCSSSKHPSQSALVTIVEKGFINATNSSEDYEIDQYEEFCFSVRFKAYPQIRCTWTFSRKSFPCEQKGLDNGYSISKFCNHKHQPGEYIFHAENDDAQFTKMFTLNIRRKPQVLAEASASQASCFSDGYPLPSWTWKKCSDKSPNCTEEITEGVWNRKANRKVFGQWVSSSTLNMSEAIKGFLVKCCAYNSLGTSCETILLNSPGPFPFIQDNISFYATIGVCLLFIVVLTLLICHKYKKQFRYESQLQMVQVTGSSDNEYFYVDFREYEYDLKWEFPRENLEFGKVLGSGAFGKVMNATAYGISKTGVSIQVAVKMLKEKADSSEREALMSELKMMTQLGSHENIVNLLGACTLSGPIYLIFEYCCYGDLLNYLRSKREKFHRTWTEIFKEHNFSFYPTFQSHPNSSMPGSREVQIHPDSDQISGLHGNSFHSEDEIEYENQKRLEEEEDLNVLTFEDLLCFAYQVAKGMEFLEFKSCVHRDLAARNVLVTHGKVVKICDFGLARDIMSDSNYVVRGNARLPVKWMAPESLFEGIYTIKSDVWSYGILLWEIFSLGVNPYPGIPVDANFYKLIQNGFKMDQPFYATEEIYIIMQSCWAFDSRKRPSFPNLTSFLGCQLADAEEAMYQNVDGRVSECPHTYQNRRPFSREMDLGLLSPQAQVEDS
Excerpt: (§1) In order to determine the effect of compounds on FLT3 catalytic activity, kinase assays using recombinant enzymes and AlphaScreen® technology have been established. When the kinases are catalytically active, they phosphorylate a biotinylated peptide substrate on tyrosine residues. Using AlphaScreen® technology, the ability of the compounds to affect the catalytic activity of the kinases can be measured quantitatively. The peptide substrate is immobilized by the AlphaScreen® Streptavidin Donor beads and, upon phosphorylation by a tyrosine kinase, can bind to AlphaScreen® Anti-Phosphotyrosine (PY20) Acceptor beads. Upon excitation of these beads with laser light at 680 nm, singlet oxygen is produced. This singlet oxygen is rapidly quenched, unless the AlphaScreen® Anti-Phosphotyrosine (PY20) Acceptor beads are in close proximity, in which case a proximity signal can be measured at 580 nm. In the presence of catalytic activity, there is a very strong proximity signal. Selective kinase inhibitors affect a decrease in this proximity signal through a decrease in tyrosine phosphorylation of the peptide substrate.
(§2) Substrate • Poly (Glu4-Tyr) Peptide, biotin conjugate [Biotin-GG(EEEEY)10EE (SEQ ID NO: 4)] • UBI/Millipore #12-440 • Final concentration=30 nM
(§3) Adenosine Triphosphate (ATP) • Sigma #A-3377 • Final concentration for IC50 determination=10 μM (FLT3-D835Y) or 100 μM (FLT3 or FLT3-ITD) • Detection Reagent • AlphaScreen® Phosphotyrosine (PY20) Assay Kit • Perkin-Elmer #6760601M • Final concentration=10 μg/mL
(§4) Centrifuge 1 minute, shake to mix, and incubate as follows:
(§5) • Mix Streptavidin Donor beads at 6× final concentration in Stop/Detection buffer. • Add 5 μL Streptavidin Donor beads to the reaction plate. Centrifuge 1 minute, shake to mix, and incubate at room temperature for 20 minutes. • Mix Anti-Phosphotyrosine (PY20) Acceptor beads at 6× final concentration in Stop/Detection buffer. • Add 5 μL Anti-Phosphotyrosine (PY20) beads to the reaction plate. • Centrifuge 1 minute, shake to mix, and incubate at room temperature for 60 minutes. • Read plate on Wallac EnVision™ 2103 Multilabel Reader. In Vivo Model System Testing

FLT3-D835Y = target: T2, FLT3-D835Y (Homo sapiens, UniProt P36888, D835Y); assay: FLT3-D835Y biochemical kinase assay (AlphaScreen)
T2 construct: purchased Invitrogen PV3967
T2 sequence (P36888 27-993 D835Y): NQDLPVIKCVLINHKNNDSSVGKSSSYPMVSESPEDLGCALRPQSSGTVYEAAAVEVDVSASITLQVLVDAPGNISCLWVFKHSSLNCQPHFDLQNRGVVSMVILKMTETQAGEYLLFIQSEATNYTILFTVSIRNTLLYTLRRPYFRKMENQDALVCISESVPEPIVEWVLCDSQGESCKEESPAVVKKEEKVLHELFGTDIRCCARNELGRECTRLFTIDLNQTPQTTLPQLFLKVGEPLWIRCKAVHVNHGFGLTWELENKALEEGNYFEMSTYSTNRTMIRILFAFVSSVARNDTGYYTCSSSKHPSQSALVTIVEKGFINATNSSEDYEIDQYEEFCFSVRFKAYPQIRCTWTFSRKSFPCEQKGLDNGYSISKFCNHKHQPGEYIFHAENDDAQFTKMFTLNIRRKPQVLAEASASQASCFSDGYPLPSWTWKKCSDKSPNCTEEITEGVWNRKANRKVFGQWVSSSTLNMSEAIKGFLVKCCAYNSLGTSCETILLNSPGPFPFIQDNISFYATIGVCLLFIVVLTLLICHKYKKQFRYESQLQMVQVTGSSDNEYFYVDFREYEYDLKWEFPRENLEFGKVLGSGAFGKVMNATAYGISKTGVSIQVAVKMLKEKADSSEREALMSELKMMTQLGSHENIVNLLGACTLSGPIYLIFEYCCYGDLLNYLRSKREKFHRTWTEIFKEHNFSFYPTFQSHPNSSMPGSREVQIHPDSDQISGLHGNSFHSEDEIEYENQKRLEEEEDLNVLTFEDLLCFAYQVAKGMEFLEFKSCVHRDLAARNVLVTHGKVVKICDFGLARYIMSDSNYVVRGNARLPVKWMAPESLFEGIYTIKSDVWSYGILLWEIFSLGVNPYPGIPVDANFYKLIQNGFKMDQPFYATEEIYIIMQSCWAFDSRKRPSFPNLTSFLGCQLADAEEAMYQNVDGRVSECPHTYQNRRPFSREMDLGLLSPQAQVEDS
Excerpt: as §1, §2, §3, §4, §5

SMILES: CC(C)(C)n1cnc2ccc(-c3c[nH]c4ncc(-c5cnc(C(=O)O)nc5)cc34)cc21 [P-402, 5-[3-(3-tert-butylbenzimidazol-5-yl)-1H-pyrrolo[2,3-b]pyridin-5-yl]pyrimidine-2-carboxylic acid]
IC50 (FLT3-ITD): 0.0001 to 1 µM

SMILES: C=CCS(=O)(=O)Nc1cccc(-c2cnc3[nH]cc(-c4ccc5ncn(C(C)(C)C)c5c4)c3c2)c1 [P-375, N-[3-[3-(3-tert-butylbenzimidazol-5-yl)-1H-pyrrolo[2,3-b]pyridin-5-yl]phenyl]prop-2-ene-1-sulfonamide]
IC50 (FLT3-ITD): 0.0001 to 1 µM

SMILES: Cc1cc(-c2cnc3[nH]cc(-c4ccc5ncn(C(C)(C)C)c5c4)c3c2)cnc1C#N [P-393, 5-[3-(3-tert-butylbenzimidazol-5-yl)-1H-pyrrolo[2,3-b]pyridin-5-yl]-3-methyl-pyridine-2-carbonitrile]
IC50 (FLT3-ITD): 0.0001 to 1 µM

SMILES: CC(C)(C)n1cnc2ccc(-c3c[nH]c4ncc(-c5cnc(NC6CC6)nc5)cc34)cc21 [P-400, 5-[3-(3-tert-butylbenzimidazol-5-yl)-1H-pyrrolo[2,3-b]pyridin-5-yl]-N-cyclopropyl-pyrimidin-2-amine]
IC50 (FLT3-ITD): 0.0001 to 1 µM

SMILES: CC(C)(C)n1cnc2ccc(-c3c[nH]c4ncc(-c5cncnc5)cc34)cc21 [P-399, 1-tert-butyl-6-(5-pyrimidin-5-yl-1H-pyrrolo[2,3-b]pyridin-3-yl)benzimidazole]
IC50 (FLT3-ITD): 0.0001 to 1 µM

SMILES: CN(C)c1ncc(-c2cnc3[nH]cc(-c4ccc5ncn(C(C)(C)C)c5c4)c3c2)cn1 [P-401, 5-[3-(3-tert-butylbenzimidazol-5-yl)-1H-pyrrolo[2,3-b]pyridin-5-yl]-N,N-dimethyl-pyrimidin-2-amine]
IC50 (FLT3-ITD): 0.0001 to 1 µM

SMILES: CC(C)(C)n1cnc2ccc(-c3c[nH]c4ncc(-c5cccc(OCC#N)c5)cc34)cc21 [P-367, 2-[3-[3-(3-tert-butylbenzimidazol-5-yl)-1H-pyrrolo[2,3-b]pyridin-5-yl]phenoxy]acetonitrile]
IC50 (FLT3-ITD): 0.0001 to 1 µM

SMILES: CC(C)(C)n1cnc2ccc(-c3c[nH]c4ncc(-c5cnc(N6CCC6)nc5)cc34)cc21 [P-398, 5-[2-(azetidin-1-yl)pyrimidin-5-yl]-3-(3-tert-butylbenzimidazol-5-yl)-1H-pyrrolo[2,3-b]pyridine]
IC50 (FLT3-ITD): 0.0001 to 1 µM

SMILES: COc1cc(-c2cnc3[nH]cc(-c4ccc5ncn(C(C)(C)C)c5c4)c3c2)ccc1C#N [P-372, 4-[3-(3-tert-butylbenzimidazol-5-yl)-1H-pyrrolo[2,3-b]pyridin-5-yl]-2-methoxy-benzonitrile]
IC50 (FLT3-ITD): 0.0001 to 1 µM

SMILES: Cc1ncc(-c2cnc3[nH]cc(-c4ccc5ncn(C(C)(C)C)c5c4)c3c2)cc1C#N [P-391, 5-[3-(3-tert-butylbenzimidazol-5-yl)-1H-pyrrolo[2,3-b]pyridin-5-yl]-2-methyl-pyridine-3-carbonitrile]
IC50 (FLT3-ITD): 0.0001 to 1 µM

SMILES: CC(C)(C)n1cnc2ccc(-c3c[nH]c4ncc(-c5cccc(OCC6CC6)c5)cc34)cc21 [P-373, 1-tert-butyl-6-[5-[3-(cyclopropylmethoxy)phenyl]-1H-pyrrolo[2,3-b]pyridin-3-yl]benzimidazole]
IC50 (FLT3-ITD): 0.0001 to 1 µM

SMILES: COc1ccc(-c2cnc3[nH]cc(-c4ccc5ncn(C(C)(C)C)c5c4)c3c2)cc1NS(C)(=O)=O [P-370, N-[5-[3-(3-tert-butylbenzimidazol-5-yl)-1H-pyrrolo[2,3-b]pyridin-5-yl]-2-methoxy-phenyl]methanesulfonamide]
IC50 (FLT3-ITD): 0.0001 to 1 µM

Now from value to molecule:

IC50 (FLT3-ITD): 0.0001 to 1 µM | IC50 (FLT3-D835Y): 0.0001 to 1 µM
SMILES: Cn1cnc2ccc(-c3c[nH]c4ncc(-c5cccc(C(=O)NC6CC6)c5)nc34)cc21 [P-147, N-cyclopropyl-3-[7-(3-methylbenzimidazol-5-yl)-5H-pyrrolo[2,3-b]pyrazin-2-yl]benzamide]

IC50 (FLT3-ITD): 0.0001 to 1 µM | IC50 (FLT3-D835Y): 0.0001 to 1 µM
SMILES: FC(F)(F)Cn1cc(-c2cnc3[nH]cc(-c4ccc5ncsc5c4)c3n2)cn1 [P-166, 6-[2-[1-(2,2,2-trifluoroethyl)pyrazol-4-yl]-5H-pyrrolo[2,3-b]pyrazin-7-yl]-1,3-benzothiazole]

IC50 (FLT3-ITD): 0.0001 to 1 µM | IC50 (FLT3-D835Y): 0.0001 to 1 µM
SMILES: O=S(=O)(Nc1cnc2[nH]cc(-c3ccc4ncn(C5CCCNC5)c4c3)c2c1)c1cccc(OC(F)(F)F)c1 (stereo not drawn) [P-212, N-[3-[3-(3-piperidyl)benzimidazol-5-yl]-1H-pyrrolo[2,3-b]pyridin-5-yl]-3-(trifluoromethoxy)benzenesulfonamide]

IC50 (FLT3-ITD): 0.0001 to 1 µM | IC50 (FLT3-D835Y): 0.0001 to 1 µM
SMILES: COc1cc(-c2cnc3[nH]cc(-c4ccc5c(c4)N(CC(F)(F)F)CCO5)c3n2)ccn1 [P-188, 6-(2-(2-methoxypyridin-4-yl)-5H-pyrrolo[2,3-b]pyrazin-7-yl)-4-(2,2,2-trifluoroethyl)-3,4-dihydro-2H-benzo[b][1,4]oxazine]

IC50 (FLT3-ITD): 0.0001 to 1 µM | IC50 (FLT3-D835Y): 0.0001 to 1 µM
SMILES: N#Cc1cccc(-c2cnc3[nH]cc(-c4ccc5ncsc5c4)c3n2)c1 [P-181, 3-[7-(1,3-benzothiazol-6-yl)-5H-pyrrolo[2,3-b]pyrazin-2-yl]benzonitrile]

IC50 (FLT3-ITD): 0.0001 to 1 µM | IC50 (FLT3-D835Y): 0.0001 to 1 µM
SMILES: CC(C)(C)n1cnc2ccc(-c3c[nH]c4ncc(-c5cccc(OC(F)(F)F)c5)cc34)cc21 [P-202, 1-tert-butyl-6-[5-[3-(trifluoromethoxy)phenyl]-1H-pyrrolo[2,3-b]pyridin-3-yl]benzimidazole]

IC50 (FLT3-ITD): 0.0001 to 1 µM | IC50 (FLT3-D835Y): 0.0001 to 1 µM
SMILES: CC(C)(C)n1cnc2ccc(-c3c[nH]c4ncc(-c5cnn(C6CC6)c5)nc34)cc21 [P-350, 7-(3-tert-butylbenzimidazol-5-yl)-2-(1-cyclopropylpyrazol-4-yl)-5H-pyrrolo[2,3-b]pyrazine]

IC50 (FLT3-ITD): 0.0001 to 1 µM
SMILES: CC(C)(C)n1cnc2ccc(-c3c[nH]c4ncc(-c5cccc(OCC(=O)O)c5)cc34)cc21 [P-374, 2-[3-[3-(3-tert-butylbenzimidazol-5-yl)-1H-pyrrolo[2,3-b]pyridin-5-yl]phenoxy]acetic acid]
